# Experiments:
# A-Raf = target: T1, A-Raf (Homo sapiens, UniProt P10398); assay: A-Raf biochemical kinase inhibition (AlphaScreen, biotin-MEK1 substrate); settings: 100 μM ATP
# T1 sequence (P10398 1-606): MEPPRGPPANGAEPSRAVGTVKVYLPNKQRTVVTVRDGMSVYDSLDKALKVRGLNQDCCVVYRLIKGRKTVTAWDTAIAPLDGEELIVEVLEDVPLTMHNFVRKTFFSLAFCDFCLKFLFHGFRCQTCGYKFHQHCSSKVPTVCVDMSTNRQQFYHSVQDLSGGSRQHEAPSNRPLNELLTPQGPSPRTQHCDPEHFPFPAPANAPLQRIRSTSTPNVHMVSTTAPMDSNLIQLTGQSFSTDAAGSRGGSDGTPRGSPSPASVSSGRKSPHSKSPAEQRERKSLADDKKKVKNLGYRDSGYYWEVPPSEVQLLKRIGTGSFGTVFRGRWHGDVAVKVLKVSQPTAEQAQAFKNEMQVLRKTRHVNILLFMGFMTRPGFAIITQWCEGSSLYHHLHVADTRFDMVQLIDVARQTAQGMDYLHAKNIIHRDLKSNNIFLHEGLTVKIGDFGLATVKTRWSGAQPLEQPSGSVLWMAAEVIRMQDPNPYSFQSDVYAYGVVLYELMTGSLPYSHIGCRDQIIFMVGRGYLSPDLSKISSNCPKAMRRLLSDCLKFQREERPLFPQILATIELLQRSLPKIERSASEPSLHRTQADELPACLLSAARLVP
# Method in brief: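 Raf kinases phosphorylating biotin-MEK1, reaction started with ATP at 100 μM final. Compounds tested at 8 points by serial dilution from a 0.1 mM DMSO stock.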
# Colo205 xenograft = Colo205 xenograft mouse model, tumor growth inhibition; format: in vivo; settings: COLO 205, 336 h, female nu/nu mice, 10 mg/kg daily for fourteen days
# Experimental: Tumor growth is monitored to approximately 100 mg size, and mice are distributed to treatment groups such that the mean tumor burden within a group is within 10% of the overall mean tumor burden. […] Mice are observed daily, with tumor burden and body weights measured twice a week. Animals with tumor burden above 1500-2000 mg and any animals in moribund condition are euthanized. The average tumor growth of vehicle control group mice is compared to the average tumor growth of the test compound mice. Percent tumor growth inhibition is calculated as 100×[(tumor growth control-tumor growth test compound)/tumor growth control].
# CYP2C19 = CYP2C19 (Homo sapiens, UniProt P33261); assay: CYP2C19 inhibition (fluorescent substrate); format: in vitro ADME; settings: CYP2C19, CEC substrate; read-out: Cyp IC50 2C19
# Method in brief: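 Human CYP activity was followed by the fluorescence of the metabolized product of a known substrate, which falls as metabolism is inhibited. Compounds from 100 mM DMSO stocks were serially diluted 1:1 over 10 points in co-factor mix and preincubated 10 min at 37 °C. IC50 was fitted from signal versus concentration.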
# Chain of CYP2C19 (P33261 whole entry): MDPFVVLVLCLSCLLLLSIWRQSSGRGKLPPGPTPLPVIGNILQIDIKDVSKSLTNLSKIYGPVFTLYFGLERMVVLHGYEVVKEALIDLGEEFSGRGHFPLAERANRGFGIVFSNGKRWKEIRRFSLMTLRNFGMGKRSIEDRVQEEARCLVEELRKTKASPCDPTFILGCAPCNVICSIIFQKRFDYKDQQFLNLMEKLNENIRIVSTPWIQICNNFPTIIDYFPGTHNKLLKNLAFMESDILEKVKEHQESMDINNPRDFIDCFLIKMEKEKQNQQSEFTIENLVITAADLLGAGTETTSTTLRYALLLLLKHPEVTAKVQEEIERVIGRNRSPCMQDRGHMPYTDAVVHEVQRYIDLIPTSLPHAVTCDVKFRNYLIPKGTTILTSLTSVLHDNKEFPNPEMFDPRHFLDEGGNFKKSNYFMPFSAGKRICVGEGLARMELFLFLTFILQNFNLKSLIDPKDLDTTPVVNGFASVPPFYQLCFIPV
smiles,measurement,setting,value
"C#Cc1cnc2[nH]cc(C(=O)c3c(F)ccc(NS(=O)(=O)CCC)c3F)c2c1 [P-2260, Propane-1-sulfonic acid [3-(5-ethynyl-1H-pyrrolo[2,3-b]pyridine-3-carbonyl)-2,4-difluoro-phenyl]-amide]",IC50,A-Raf,< 0.01 µM
same,inhibition in vivo at 10 mg/kg,Colo205 xenograft,79%
same,IC50,CYP2C19,5 to 10 µM
